Data set [1] can be described thus: Direct transport (apical to basolateral, A → B) across the hBLEC monolayer: Pe and Papp. Format: in vitro ADME, human. The conditions noted are these: human, pH 7.4, 50 μM. On the procedure:
(§1) Prior to the experiments, in order to verify the hBLECs’ monolayer integrity and stability, the permeability parameters were verified as previously reported. Briefly, 1.5 mL Ringer–Hepes solution (RH) (150 mM NaCl, 5.2 mM KCl, 2.2 mM CaCl2, 0.2 mM MgCl26H2O, 6 mM NaHCO3, 5 mM HEPES, pH: 7.4) was added to empty wells of a 12-well plate. Filter insert containing confluent monolayers of hBLECs or not (control) were subsequently placed in the 12-well plate, filled with 0.5 mL RH buffer containing the fluorescent integrity marker LY (50 μM), and then placed on an orbital shaker (150 rpm, Heidolph Titramax 100) at 37 °C in a humidify atmosphere of 95% air/5% CO2. Every 20 min for 1 h, filter inserts were withdrawn from the receiver compartment and placed in the next one. To verify the quantity of LY, at the end of the experiments, aliquots from the donor solution were taken at the end of the experiments and the fluorescence was quantified using a quantification curve of LY as referee. At least three inserts with cells and three without cells were tested in each permeability measurement. The fluorescence was measured using a luminescence spectrometer (LS 50B, Perkin Elmer), using the following excitation/emission wavelength (nm) settings: 432/538. Pe parameters were calculated according to the formulas shown in the Supplementary Information (Equations (7)–(10)). In parallel, as positive control for breakdown of hBLECs, D-mannitol, was used at a concentration of 1.4 M. At this concentration, mannitol induces an osmotic shock, and thus an increase in paracellular permeability.
(§2) Transport experiments were carried out by adding tritium-labeled GM1 or OligoGM1 (1 × 10^6 dpm) to cold GM1 or OligoGM1, respectively, at different concentrations, as specified below.
(§3) To identify and quantify the GM1 or OligoGM1 molecules in every transport experiment, aliquots from apical A (5 μL) and basolateral B (200 μL) compartments were collected at indicated time points and combined with 5 mL of ULTIMA GOLD liquid (PerkinElmer), shaken, and counted for 20 min by liquid scintillation analyzer (TRI-CARB 2100TR, Packard). Resulting radioactivity measures were used to estimate the quantity of the molecules. Experiments were performed on an agitation plate at 37 °C (150 rpm, Heidolph Titramax 100) in a humidify atmosphere of 95% air/5% CO2. At least three inserts with cells were tested in each transport experiment for each condition.
(§4) To examine flux from apical to basolateral compartments (A → B), 1.5 mL RH buffer was added to empty wells of a 12-well plate. Following this, the hBLEC filter was placed in the same 12-well plate and filled with 0.5 mL RH buffer containing 1 × 10^6 dpm of tritiated [^3H]GM1 or [^3H]OligoGM1 plus 50 μM of cold GM1 or OligoGM1 (Figure S3b).
(§5) To establish the time dependence of the transport experiments, hBLEC inserts filled with OligoGM1 were transferred into a new receiver well plate filled with fresh RH buffer every 20 min up to 240 min. The hBLECs’ properties, integrity, and stability were maintained up to 240 min in the transport experiments with RH buffer in the upper and basolateral side (see [28] and Figure S4).
(§6) To establish the dose dependence in the transport experiments, 1 × 10^6 dpm of tritiated [^3H]OligoGM1 plus 5, 10, 50, 100, and 300 μM OligoGM1 solutions were prepared and employed as described above. The hBLECs inserts were transferred into a new RH-filled receiver well plate every 20 min up to 60 min. […]
(§7) To evaluate the possible active transport involvement, the transport of OligoGM1 from apical to basolateral (A → B) compartments was performed at 4 °C, with the aim of inhibiting the active transport mechanism at low temperature. […]

In data set [2] the test system is human brain-like endothelial cells (hBLECs). Described as above. The format is in vitro ADME. On the procedure:
as §1, §2, §3, §4, §5, §6, §7

Read-outs that look alike come from different tables or passages of the source.

For `CC(=O)NC1C(O)CC(OC2C(O)C(OC3C(CO)OC(O)C(O)C3O)OC(CO)C2OC2OC(CO)C(O)C(OC3OC(CO)C(O)C(O)C3O)C2NC(C)=O)(C(=O)O)OC1C(O)C(O)CO` (stereo not drawn) [OligoGM1, β-Gal-(1-3)-β-GalNAc-(1-4)-[α-Neu5Ac-(2-3)]-β-Gal-(1-4)-β-Glc], the Papp A→B at 60 min, 50 μM was 6.7 ± 0.17 ×10⁻⁶ cm/s in data set [1] (60 min, 4 °C (Figure 6d), read-out: Papp A>B at 4 °C); 8.8 ± 0.24 ×10⁻⁶ cm/s in data set [1] (60 min, 37 °C, temperature experiment (Figure 6d), read-out: Papp A>B at 37 °C); 9.67 ×10⁻⁶ cm/s in data set [1] (after 60 min, hBLEC monolayer, read-out: endothelial permeability Pe (A → B) (converted)). Moreover, in data set [2] (50 μM, 0.1% (w/v) BSA in apical solution, 60 min), the “influence of BSA on rate of A → B transport” value was “No difference in the rate of transport”. Also, in data set [2] (50 μM, 20-240 min, y = slope × x), the “slope of linear regression: % of administered nmol in receiving compartment vs time (min)” value stood at 0.1097. For the same molecule, the “crossing rate / Pe of OligoGM1 relative to GM1” value in data set [2] (50 μM, hBLECs) is listed as 20 fold. Further, in data set [2] (50 μM, up to 240 min), the “time dependence of A → B transport” value is reported as “linear time dependence”. Further, in data set [2] (5-300 μM, 60 min, y = slope × x), the “slope of linear regression: nmol in receiving compartment vs concentration (μM)” value is on record as 0.04352. Further, in data set [2] (5 to 300 μM, 60 min), the “concentration dependence of A → B transport” value is reported as “proportional increase”.

Values taken from PMC7215935, “GM1 Oligosaccharide Crosses the Human Blood–Brain Barrier In Vitro by a Paracellular Route” (International Journal of Molecular Sciences, 2020).
